Reference: PubChem BioAssay AID330 (DTP/NCI, 2004)
“And” between values parts separate entries of the source, which are not always exact repeats. Identical values can stand only once. Toxic doses and inconclusive results are not listed. The calls were made as follows: active = survival T/C of 150% or more; inactive = T/C below 125% in these data.

Test system: P388 leukemia ip, CD2F1 mice, survival T/C
Test: NCI In Vivo Anticancer Drug Screen. Data for tumor model P388 Leukemia (intraperitoneal) in CD2F1 (CDF1) mice
Conditions: endpoint: median survival time, higher = longer survival
Outline: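 Mice carrying the transplanted tumor received test compound or vehicle. Survival was recorded in each group, and the value is the treated-group measurement divided by that of the vehicle-treated control group.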

[1] = dose: 100.0 mg/kg/injection, schedule: Q04DX003 (ip), vehicle: saline with Tween-80
[2] = dose: 200.0 mg/kg/injection, schedule: Q04DX003 (ip), vehicle: saline with Tween-80
[3] = dose: 400.0 mg/kg/injection, schedule: Q01DX001 (ip), vehicle: saline
[4] = dose: 400.0 mg/kg/injection, schedule: Q04DX003 (ip), vehicle: saline with Tween-80
[5] = dose: 12.5 mg/kg/injection, schedule: Q01DX005 (ip), vehicle: saline with Tween-80
[6] = dose: 25.0 mg/kg/injection, schedule: Q01DX005 (ip), vehicle: saline with Tween-80
[7] = dose: 50.0 mg/kg/injection, schedule: Q01DX005 (ip), vehicle: saline with Tween-80
[8] = dose: 100.0 mg/kg/injection, schedule: Q01DX005 (ip), vehicle: saline with Tween-80
[9] = dose: 200.0 mg/kg/injection, schedule: Q01DX005 (ip), vehicle: saline with Tween-80
[10] = dose: 60.0 mg/kg/injection, schedule: Q01DX005 (ip), vehicle: saline with Tween-80
[11] = dose: 120.0 mg/kg/injection, schedule: Q01DX005 (ip), vehicle: saline with Tween-80
[12] = dose: 240.0 mg/kg/injection, schedule: Q01DX005 (ip), vehicle: saline with Tween-80
[13] = dose: 100.0 mg/kg/injection, schedule: Q04DX003 (ip), vehicle: Klucel (hydroxypropylcellulose) (HPC)
[14] = dose: 200.0 mg/kg/injection, schedule: Q04DX003 (ip), vehicle: Klucel (hydroxypropylcellulose) (HPC)
[15] = dose: 400.0 mg/kg/injection, schedule: Q04DX003 (ip), vehicle: Klucel (hydroxypropylcellulose) (HPC)
[16] = dose: 25.0 mg/kg/injection, schedule: Q01DX005 (ip), vehicle: Klucel (hydroxypropylcellulose) (HPC)
[17] = dose: 50.0 mg/kg/injection, schedule: Q01DX005 (ip), vehicle: Klucel (hydroxypropylcellulose) (HPC)
[18] = dose: 100.0 mg/kg/injection, schedule: Q01DX005 (ip), vehicle: Klucel (hydroxypropylcellulose) (HPC)
[19] = dose: 6.25 mg/kg/injection, schedule: Q01DX005 (ip), vehicle: Klucel (hydroxypropylcellulose) (HPC)
[20] = dose: 12.5 mg/kg/injection, schedule: Q01DX005 (ip), vehicle: Klucel (hydroxypropylcellulose) (HPC)
[21] = dose: 50.0 mg/kg/injection, schedule: Q01DX009 (ip), vehicle: saline
[22] = dose: 100.0 mg/kg/injection, schedule: Q01DX009 (ip), vehicle: saline
[23] = dose: 200.0 mg/kg/injection, schedule: Q01DX009 (ip), vehicle: saline
[24] = dose: 60.0 mg/kg/injection, schedule: Q01DX005 (ip), vehicle: Klucel (hydroxypropylcellulose) (HPC)
[25] = dose: 120.0 mg/kg/injection, schedule: Q01DX005 (ip), vehicle: Klucel (hydroxypropylcellulose) (HPC)

Measured: T/C

O=[N+]([O-])c1ccc(N/N=C\c2c(Cl)n(-c3ccccc3)c3ccccc23)cc1
inactive: [1] 93 % of control | [2] 90 % of control | [3] 95 % of control | [4] 91 % of control

CS(=O)(=O)O/C=C1\C(=O)OC2CCCCC12 (stereo not given)
inactive: dose: 18.8 mg/kg/injection, schedule: Q01DX009 (ip), vehicle: distilled water + Tween-80 108 % of control | dose: 37.5 mg/kg/injection, schedule: Q01DX009 (ip), vehicle: distilled water + Tween-80 107 % of control and 116 % of control | dose: 75.0 mg/kg/injection, schedule: Q01DX009 (ip), vehicle: distilled water + Tween-80 116 % of control and 118 % of control | dose: 150.0 mg/kg/injection, schedule: Q01DX009 (ip), vehicle: distilled water + Tween-80 120 % of control

O=C(c1ccccc1)c1cnc2nc(-c3ccccc3)c(-c3ccccc3)nn12
inactive: [5] 89 % of control | [6] 90 % of control | [7] 93 % of control and 94 % of control | [8] 101 % of control | [9] 102 % of control

COc1ccc(C2OC3=C(Nc4ccc([N+](=O)[O-])cc4N3)C2=O)cc1 (stereo not given)
inactive: dose: 0.93 mg/kg/injection, schedule: Q01DX005 (ip), vehicle: Klucel (hydroxypropylcellulose) (HPC) 89 % of control | dose: 1.87 mg/kg/injection, schedule: Q01DX005 (ip), vehicle: Klucel (hydroxypropylcellulose) (HPC) 93 % of control | dose: 3.75 mg/kg/injection, schedule: Q01DX005 (ip), vehicle: Klucel (hydroxypropylcellulose) (HPC) 92 % of control

COc1ccc(NC(=O)N2CC3CCN2CC3)cc1
inactive: [10] 99 % of control | [11] 93 % of control | [12] 90 % of control

O=C1CCC(c2n[nH]c(=S)o2)N1 (stereo not given)
inactive: [10] 104 % of control | [11] 105 % of control | [12] 108 % of control

COc1cc(/C=C/C=C/c2ccccc2)oc(=O)c1
inactive: [13] 91 % of control | [14] 90 % of control | [15] 92 % of control

CC(C)CCCC(C)Cc1cc(CC(C)CCCC(C)C)n(C)n1 (stereo not given)
inactive: [16] 108 % of control and 109 % of control and 97 % of control | [17] 102 % of control and 109 % of control and 96 % of control | [18] 101 % of control and 105 % of control and 111 % of control | dose: 200.0 mg/kg/injection, schedule: Q01DX005 (ip), vehicle: Klucel (hydroxypropylcellulose) (HPC) 108 % of control and 121 % of control and 96 % of control | dose: 400.0 mg/kg/injection, schedule: Q01DX005 (ip), vehicle: Klucel (hydroxypropylcellulose) (HPC) 100 % of control

O=C1CCC(=O)N1SC(Cl)(Cl)Cl
inactive: dose: 6.25 mg/kg/injection, schedule: Q01DX005 (ip), vehicle: saline with Tween-80 109 % of control | [5] 107 % of control | [6] 100 % of control

Nc1cccc(NCc2ccncc2)n1
inactive: [19] 98 % of control and 99 % of control and 100 % of control | [20] 100 % of control and 101 % of control and 94 % of control | [16] 100 % of control (2×) and 96 % of control | [18] 113 % of control

C=CC1CCCCC1C=C (stereo not given)
inactive: dose: 12.5 mg/kg/injection, schedule: Q04DX003 (ip), vehicle: saline 100 % of control | dose: 25.0 mg/kg/injection, schedule: Q04DX003 (ip), vehicle: saline 113 % of control | dose: 50.0 mg/kg/injection, schedule: Q04DX003 (ip), vehicle: saline 100 % of control

CC(CC=O)CCCC(C)(C)O (stereo not given)
inactive: [1] 100 % of control | [2] 100 % of control | [4] 100 % of control

C(=C1CC(=Cc2ccccc2)C1)c1ccccc1
inactive: dose: 100.0 mg/kg/injection, schedule: Q01DX001 (ip), vehicle: Klucel (hydroxypropylcellulose) (HPC) 94 % of control | dose: 200.0 mg/kg/injection, schedule: Q01DX001 (ip), vehicle: Klucel (hydroxypropylcellulose) (HPC) 88 % of control | dose: 400.0 mg/kg/injection, schedule: Q01DX001 (ip), vehicle: Klucel (hydroxypropylcellulose) (HPC) 88 % of control

CC1CN1P(=O)(c1ccccc1)N1CC1C (stereo not given)
inactive: [5] 108 % of control | dose: 12.5 mg/kg/injection, schedule: Q01DX005 (ip), vehicle: saline 100 % of control | [6] 100 % of control | dose: 25.0 mg/kg/injection, schedule: Q01DX005 (ip), vehicle: saline 95 % of control | [7] 104 % of control and 97 % of control | dose: 50.0 mg/kg/injection, schedule: Q01DX005 (ip), vehicle: saline 96 % of control | dose: 50.0 mg/kg/injection, schedule: Q01DX005 (ip), vehicle: suspension in saline 105 % of control | dose: 100.0 mg/kg/injection, schedule: Q01DX005 (ip), vehicle: suspension in saline 115 % of control

Oc1c(Cl)cc(Cl)cc1/C=N/c1nc(-c2ccc(Cl)cc2)cs1
inactive: dose: 100.0 mg/kg/injection, schedule: Q01DX009 (ip), vehicle: saline with Tween-80 88 % of control | dose: 200.0 mg/kg/injection, schedule: Q01DX009 (ip), vehicle: saline with Tween-80 104 % of control

CN(C(=S)NNC(=O)C1CCC(=O)N1)c1ccccc1 (stereo not given)
inactive: [10] 99 % of control | [11] 98 % of control | [12] 103 % of control

CC1CCC(O)C23OC4C(OC(C)(C)C4C12C)C3=O (stereo not given) (tested in a mixture with another compound)
inactive: [21] 96 % of control | [22] 89 % of control | [23] 94 % of control

CN1C(=O)C/C(=C\N2CCCCC2)C1=O
inactive: [7] 98 % of control | [8] 102 % of control

CN(C)CCOC(=O)Nc1cc(Cl)cc(Cl)c1
inactive: [10] 103 % of control | [11] 103 % of control

O=C(CCCl)Nc1cccc(/C=C/C(=O)c2ccccc2NC(=O)CCCl)c1
inactive: [10] 99 % of control | [11] 99 % of control | [12] 93 % of control

O=C1c2ccccc2C(=O)N1C(=NCc1ccccc1)c1ccccc1
inactive: [13] 104 % of control | [14] 104 % of control | [15] 109 % of control

CN1C(=O)N(c2cc(Cl)cc(Cl)c2)C(=N)C1=S
inactive: dose: 60.0 mg/kg/injection, schedule: Q01DX005 (ip), vehicle: Klucel + Tween-80 98 % of control | dose: 120.0 mg/kg/injection, schedule: Q01DX005 (ip), vehicle: Klucel + Tween-80 94 % of control

O=C(Nc1ccccc1)c1nn(-c2cc(S(=O)(=O)[O-])ccc2Cl)[n+](-c2ccccc2Cl)n1
inactive: [24] 101 % of control | [25] 101 % of control

N#CCCCCCCCCCCCCCC1C=CCC1 (stereo not given)
inactive: dose: 100.0 mg/kg/injection, schedule: Q01DX001 (ip), vehicle: saline 106 % of control | dose: 200.0 mg/kg/injection, schedule: Q01DX001 (ip), vehicle: saline 99 % of control | [3] 101 % of control

COc1ccc2c(C)cc(N/N=C(\C)c3ccccn3)nc2c1
inactive: dose: 3.12 mg/kg/injection, schedule: Q01DX005 (ip), vehicle: Klucel (hydroxypropylcellulose) (HPC) 100 % of control | [19] 98 % of control | [20] 90 % of control and 97 % of control | [16] 95 % of control | [17] 98 % of control and 97 % of control

C[C@H]1C(=O)OCN1C(=O)OCc1ccccc1
inactive: [10] 100 % of control | [11] 100 % of control | [12] 95 % of control

CCOC(=O)C(N)CSCSC (stereo not given)
inactive: dose: 50.0 mg/kg/injection, schedule: Q01DX009 (ip), vehicle: water 88 % of control | dose: 100.0 mg/kg/injection, schedule: Q01DX009 (ip), vehicle: water 97 % of control | dose: 200.0 mg/kg/injection, schedule: Q01DX009 (ip), vehicle: water 86 % of control | dose: 400.0 mg/kg/injection, schedule: Q01DX009 (ip), vehicle: water 94 % of control

C[CH2][Ge]([CH2]C)[CH2]C.C[CH2][Ge]([CH2]C)[O]C
inactive: [21] 106 % of control | [22] 92 % of control | [23] 92 % of control

CC1(C)SC(C)(c2ccsc2)N(c2nccs2)C1=O (stereo not given)
inactive: [24] 97 % of control | [25] 96 % of control | dose: 240.0 mg/kg/injection, schedule: Q01DX005 (ip), vehicle: Klucel (hydroxypropylcellulose) (HPC) 94 % of control

COC(=O)C1C2C=CC(C1C(=O)OC)C1C3C(=O)N(N)C(=O)C3C21 (stereo not given)
inactive: [7] 100 % of control | [8] 96 % of control | [9] 91 % of control
